A short description of test [1]: Impact of fragrance ingredients on scalp malodour counteractancy of 80 fragrance compositions (Example 2 protocol, statistical presence). Particulars: series of 80 fragrance compositions. As to the method:
In a second set of experiments, the impact of these fragrance ingredients on the scalp malodour counteractancy of a fragrance composition was assessed. The scalp malodour counteractancy of a series of 80 fragrance compositions was assessed by performing the evaluation protocol described in Example 2. […] Ingredients that were statistically more present in fragrances having a high malodour counteractancy were assigned a positive status, whereas ingredients that were statistically more present in compositions having a low malodour counteractancy were assigned a negative status.

Test [2] can be described thus: Gas-phase evaluation of each fragrance ingredient alone against model scalp malodour, MiniVAS device, panel of 5 experts. Conditions: for Scalp MOC of ingredient alone: expert description. Here is the method: In a first set of experiments, the scalp malodour counteractancy of 173 fragrance ingredients was evaluated by panel of 5 experts.
The evaluation was performed in the gas phase, using a MiniVAS™ device (ex Givaudan SA). This device is a regulating means that comprises a plurality of channels adapted to convey a gas (more particularly air) through cartridges, each cartridge containing a fragrance ingredient adsorbed onto an adsorbent. The air flows coming from the different cartridges are admixed and conveyed to the user's nose through a tubing fitted with an olfactometer funnel. Thus, by opening and closing channels and maintaining these opened and closed, respectively, for predetermined times, the regulating means can determine which fragrance ingredients and how much thereof are conveyed and when, and thus alter the nature of the fragrance perceived by the user. A description of the device can be found in WO2014154909A1, page 2, line 11 to page 4, line 7, and in H. R. Gygax et al. “Evolution of Real Time Aroma Creation at Givaudan”, poster presented at the 12th Weurman Flavour Research Symposium. July 2008. Interlaken, Switzerland; DOI: 10.13140/2.1.1924.0641.
For the sake of the present evaluation, one cartridge contained the scalp malodour (in the form of a model malodour) and each fragrance ingredient was assigned to another cartridge. The malodour counteractancy of each fragrance ingredient was evaluated separately against the scalp malodour. A constant air flow rate of 50 ml/min was used for all measurements. The perceived malodour intensity, as well as the fragrance intensity, were ranked on a scale of 1-5 (1=barely noticeable, 2=weak, 3=medium, 4=strong and 5=very strong).

The mark [3] stands for this setting: Table 3, air flow 50 ml/min, scale of 1-5 (1=barely noticeable, 5=very strong).
Where [4] appears, read: Table 4, air flow 50 ml/min, scale of 1-5.

Regarding `CC(=O)C1(C)CC2=C(CCCC2(C)C)CC1C` (stereo not shown) [1-(2,3,8,8-tetramethyl-1,2,3,4,5,6,7,8-octahydronaphthalen-2-yl)ethanone], in test [1] (Table 3), the “Impact on scalp MOC of fragrance composition” value (“Impact on scalp MOC” for short) is given as “Positive”. For the same compound, in test [2] (setting [3]), the MO intensity is 1. In addition, the “Scalp MOC of ingredient alone” value in test [2] (Table 3, gas phase) is on record as “No effect”.

Turning to `C/C=C/c1ccc(O)c(OC)c1` [(E)-2-methoxy-4-(prop-1-en-1-yl)phenol], in test [1] (Table 3), the “Impact on scalp MOC” value was “Positive”. Moreover, the MO intensity in test [2] (setting [3]) is recorded as 4.5.

Regarding `CC(=O)c1ccc2ccccc2c1` [1-(2-naphtalenyl)-ethanone], the “Impact on scalp MOC” value in test [1] (Table 4) was “Negative”. In addition, the MO intensity in test [2] (setting [4]) is 1.

For the compound `C/C(=C\C(C)C)C(C)OC(C)(C)COC(=O)C1CC1` (stereo not shown) [(E)-2-((3,5-dimethylhex-3-en-2-yl)oxy)-2-methylpropyl cyclopropanecarboxylate], the “Impact on scalp MOC” value in test [1] (Table 4) is given as “Negative”. For the same compound, the MO intensity in test [2] (setting [4]) stood at 1.

Consider `CCCCOC(=O)C(C)OC(=O)CCC` (stereo not shown) [1-butoxy-1-oxopropan-2-yl butanoate], for which, in test [1] (Table 3), the “Impact on scalp MOC” value was “Positive”. Also, the MO intensity in test [2] (setting [3]) is recorded as 1. Also, in test [2] (Table 3, gas phase), the “Scalp MOC of ingredient alone” value is “No effect”.

On to `CC(=O)O[C@]1(C)CC[C@]23CC1C(C)(C)C2CC[C@@H]3C` (stereo partly drawn) [(1S,6R,8aR)-1,4,4,6-tetramethyloctahydro-1H-5,8a-methanoazulen-6-yl acetate], for which the “Impact on scalp MOC” value in test [1] (Table 3) is reported as “Positive”. In test [2] (setting [3]), this compound had an MO intensity of 1. In addition, the “Scalp MOC of ingredient alone” value in test [2] (Table 3, gas phase) is listed as “No effect”.

`CC(C)(O)Cc1ccccc1` [2-methyl-1-phenylpropan-2-ol]: the “Impact on scalp MOC” value in test [1] (Table 4) is reported as “Negative”. Further, the MO intensity in test [2] (setting [4]) was found to be 1.

In the case of `CCC(=O)O[C@H]1CC2CC1[C@H]1CC=C[C@@H]21` (stereo partly drawn) [(3aR,6S,7aS)-3a,4,5,6,7,7a-hexahydro-1H-4,7-methanoinden-6-yl propanoate], the “Impact on scalp MOC” value in test [1] (Table 4) is “Negative”. The MO intensity in test [2] (setting [4]) is recorded as 1.3.

Turning to `CC(=O)CCC1=C(C)CCCC1(C)C` [4-(2,6,6-trimethylcyclohex-1-en-1-yl)butan-2-one], the “Impact on scalp MOC” value in test [1] (Table 4) is on record as “Negative”. Further, in test [2] (setting [4]), the MO intensity turned out to be 1.

As to `COC(=O)c1ccccc1N` [methyl 2-aminobenzoate], the “Impact on scalp MOC” value in test [1] (Table 3) is “Positive”. This compound gave an MO intensity in test [2] (setting [3]) of 4.3.

As for `CC(CCO)CCCC(C)(C)O` (stereo not shown) [3,7-dimethyloctane-1,7-diol], the “Impact on scalp MOC” value in test [1] (Table 3) is listed as “Positive”. Besides, in test [2] (setting [3]), the MO intensity was 1. The “Scalp MOC of ingredient alone” value in test [2] (Table 3, gas phase) is given as “No effect”.

Turning to `CC(=O)C(C)O` (stereo not shown) [3-hydroxybutan-2-one], the “Impact on scalp MOC” value in test [1] (Table 3) was “Positive”. In addition, the MO intensity in test [2] (setting [3]) is 4.

For `CCC(O)COC1CCCCC1C(C)(C)C` (stereo not shown) [1-((2-(tert-butyl)cyclohexyl)oxy)butan-2-ol], the “Impact on scalp MOC” value in test [1] (Table 3) is “Positive”. The compound also gave an MO intensity in test [2] (setting [3]) of 2.3. Besides, in test [2] (Table 3, gas phase), the “Scalp MOC of ingredient alone” value is reported as “Coverage”.

With `CC(=O)C1CC/C=C\C(C)C(C)/C=C\C/C=C/1C` (stereo not shown) [1-((2E,5Z,9Z)-2,7,8-trimethylcyclododeca-2,5,9-trien-1-yl)ethanone], the “Impact on scalp MOC” value in test [1] (Table 3) is given as “Positive”. Further, the MO intensity in test [2] (setting [3]) came to 1. Also, the “Scalp MOC of ingredient alone” value in test [2] (Table 3, gas phase) is on record as “No effect”.

Regarding `CC1(C)CCC[C@]2(C)[C@H]3CCO[C@]3(C)CC[C@@H]12` [(3aR,5aS,9aS,9bR)-3a,6,6,9a-tetramethyl-2,4,5,5a,7,8,9,9b-octahydro-1H-benzo[e][1]benzofuran], the “Impact on scalp MOC” value in test [1] (Table 3) is reported as “Positive”. In addition, the MO intensity in test [2] (setting [3]) amounted to 1. Also, in test [2] (Table 3, gas phase), the “Scalp MOC of ingredient alone” value is on record as “No effect”.

For the compound `CC(=O)/C=C/C1=C(C)CCCC1(C)C` [(E)-4-(2,6,6-trimethylcyclohex-1-en-1-yl)but-3-en-2-one], the “Impact on scalp MOC” value in test [1] (Table 4) is given as “Negative”. Moreover, the MO intensity in test [2] (setting [4]) is recorded as 1.

`CC(=O)C1=C(C)C2C[C@@]3(C1)C(CC[C@@H]3C)C2(C)C` (stereo partly drawn) [1-((1S,8aS)-1,4,4,6-tetramethyl-2,3,3a,4,5,8-hexahydro-1H-5,8a-methanoazulen-7-yl)ethanone]: the “Impact on scalp MOC” value in test [1] (Table 4) is “Negative”. The MO intensity in test [2] (setting [4]) is 1.

On to `CC1CC(C)(c2ccccc2)CO1` (stereo not shown) [2,4-dimethyl-4-phenyltetrahydrofuran], for which the “Impact on scalp MOC” value in test [1] (Table 4) is “Negative”. The MO intensity in test [2] (setting [4]) was determined as 4.1.

`CC(C)=CCCC(C)CC=O` (stereo not shown) [3,7-dimethyloct-6-enal]: the “Impact on scalp MOC” value in test [1] (Table 3) was “Positive”. Besides, in test [2] (setting [3]), the MO intensity came to 3.

Take `CC(C)=CCCC(C)CCO` (stereo not shown) [3,7-dimethyloct-6-en-1-ol]: in test [1] (Table 3), the “Impact on scalp MOC” value is given as “Positive”. Moreover, in test [2] (setting [3]), the MO intensity turned out to be 2.5.

As to `C=CCOC(=O)CCC1CCCCC1` [prop-2-enyl 3-cyclohexylpropanoate], the “Impact on scalp MOC” value in test [1] (Table 4) was “Negative”. The MO intensity in test [2] (setting [4]) was found to be 1.5.

Take `C/C=C/C(=O)C1C(C)=CCCC1(C)C` (stereo not shown) [(E)-1-(2,6,6-trimethylcyclohex-2-en-1-yl)but-2-en-1-one]: the “Impact on scalp MOC” value in test [1] (Table 3) is recorded as “Positive”. In test [2] (setting [3]), this compound returned an MO intensity of 3.7.

`O=C(OC1CCCCC1)c1ccccc1O` [cyclohexyl 2-hydroxybenzoate]: the “Impact on scalp MOC” value in test [1] (Table 3) is “Positive”. Besides, in test [2] (setting [3]), the MO intensity stood at 1. The “Scalp MOC of ingredient alone” value in test [2] (Table 3, gas phase) was “No effect”.

In the case of `CC(C)=CCCC1=CCC(C=O)CC1` (stereo not shown) [4-(4-methylpent-3-en-1-yl)cyclohex-3-enecarbaldehyde], the “Impact on scalp MOC” value in test [1] (Table 4) was “Negative”. The same compound returned an MO intensity in test [2] (setting [4]) of 1.

Turning to `CCCC(=O)OC(C)(C)Cc1ccccc1` [2-methyl-1-phenylpropan-2-yl butanoate], the “Impact on scalp MOC” value in test [1] (Table 4) is reported as “Negative”. The compound further had an MO intensity in test [2] (setting [4]) of 3.

Take `CC1CC(C)(c2ccccc2)OC(C)O1` (stereo not shown) [2,4,6-trimethyl-4-phenyl-1,3-dioxane]: the “Impact on scalp MOC” value in test [1] (Table 4) was “Negative”. Also, the MO intensity in test [2] (setting [4]) is recorded as 1.

As to `O=CCC/C=C1\CC2CC1[C@H]1CCC[C@@H]21` (stereo partly drawn) [(E)-4-((3aS,7aS)-hexahydro-1H-4,7-methanoinden-5(6H)-ylidene)butanal], the “Impact on scalp MOC” value in test [1] (Table 3) is given as “Positive”. For the same compound, the MO intensity in test [2] (setting [3]) is on record as 2.5.

`CC(CCO)CCc1ccccc1` (stereo not shown) [3-methyl-5-phenylpentan-1-ol]: in test [1] (Table 3), the “Impact on scalp MOC” value was “Positive”. This compound also had an MO intensity in test [2] (setting [3]) of 2.

`CC(=O)OCCC(C)CCC=C(C)C` (stereo not shown) [3,7-dimethyloct-6-en-1-yl acetate]: the “Impact on scalp MOC” value in test [1] (Table 4) was “Negative”. Also, the MO intensity in test [2] (setting [4]) came out at 2. Besides, the “Scalp MOC of ingredient alone” value in test [2] (Table 4, gas phase) is on record as “Low coverage”.

`CCC(=O)/C=C/C1C(C)=CCCC1(C)C` (stereo not shown) [(E)-1-(2,6,6-trimethylcyclohex-2-en-1-yl)pent-1-en-3-one]: the “Impact on scalp MOC” value in test [1] (Table 3) is “Positive”. This compound also gave an MO intensity in test [2] (setting [3]) of 3.

Take `CCCCCC/C(C=O)=C\c1ccccc1` [(E)-2-benzylideneoctanal]: the “Impact on scalp MOC” value in test [1] (Table 4) was “Negative”. In test [2] (setting [4]), this compound yielded an MO intensity of 1.2.

As for `CC(C)CCc1ccc2c(c1)OCC(=O)CO2` [7-isopentyl-2H-benzo[b][1,4]dioxepin-3(4H)-one], the “Impact on scalp MOC” value in test [1] (Table 3) is “Positive”. In test [2] (setting [3]), this compound displayed an MO intensity of 4.5.

In the case of `CCCC1(C(C)(C)C)C=CC(C)O1` (stereo not shown) [5-tert-butyl-2-methyl-5-propyl-2H-furan], in test [1] (Table 3), the “Impact on scalp MOC” value is listed as “Positive”. Besides, the MO intensity in test [2] (setting [3]) was 4.

On to `C/C=C/c1ccc(OC)cc1` [(E)-1-methoxy-4-(prop-1-en-1-yl)benzene], for which the “Impact on scalp MOC” value in test [1] (Table 3) is listed as “Positive”. The MO intensity in test [2] (setting [3]) stood at 4.

As for `CCOC(=O)CC1(C)OCCO1` [ethyl 2-(2-methyl-1,3-dioxolan-2-yl)acetate], the “Impact on scalp MOC” value in test [1] (Table 3) is on record as “Positive”. Also, in test [2] (setting [3]), the MO intensity is listed as 2.3.

Turning to `C=CCOC(=O)COC1CCCCC1` [allyl 2-(cyclohexyloxy)acetate], the “Impact on scalp MOC” value in test [1] (Table 4) is recorded as “Negative”. This compound yielded an MO intensity in test [2] (setting [4]) of 4.3.

For `CC1=CCC(/C=C/C(C)C(C)O)C1(C)C` (stereo not shown) [(E)-3-methyl-5-(2,2,3-trimethylcyclopent-3-en-1-yl)pent-4-en-2-ol], the “Impact on scalp MOC” value in test [1] (Table 3) is on record as “Positive”. This compound yielded an MO intensity in test [2] (setting [3]) of 4.3.

Turning to `CCCCC1COCC(C)C1OC(C)=O` (stereo not shown) [3-butyl-5-methyltetrahydro-2H-pyran-4-yl acetate], the “Impact on scalp MOC” value in test [1] (Table 4) is on record as “Negative”. For the same compound, the MO intensity in test [2] (setting [4]) came out at 1.

These data come from patent publication US20260272797A1, “FRAGRANCE COMPOSITION” (GIVAUDAN SA, priority 2023, published 2026).
